Patent US20230051589A1, “COMPOUNDS AND COMPOSITIONS FOR TREATING CONDITIONS ASSOCIATED WITH NLRP ACTIVITY” (Novartis AG, priority 2018, published 2023)

Test system: IL-1β production in PMA-differentiated THP-1 cells
Experiment: IL-1β production in PMA-differentiated THP-1 cells stimulated with gramicidin (hTHP-1 assay, 2% fetal bovine serum; Procedures 1-3)
Assay type: cell-based, human
Conditions: Homo sapiens, THP-1, hTHP-1 assay containing 2% fetal bovine serum, Table B2, class symbols; read-out: IC50
How it was run: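 PMA-primed THP-1 cells (20 ng/ml PMA, 16-18 h) in RPMI with 2% FBS were pre-incubated with compounds for 1 h, from 100 μM downward in 3-fold steps (0.37% DMSO final), then stimulated with 5 μM gramicidin for 2 h. IL-1β in the supernatant was quantified by HTRF.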

IC50 [nM] | SMILES
40 to 200 | Cc1c(C2CC2)cc2c(c1NC(=O)N=S(N)(=O)c1cnc(C(C)(C)O)s1)CCC2 (centres unmarked) [Example 468]
1000 to 5000 | CC(C)(O)c1ccc(S(N)(=O)=NC(=O)Nc2c3c(cc4c2C(=O)CC4)CCC3)cn1 (centres unmarked) [Example 469, 6-(2-Hydroxypropan-2-yl)-N′-((3-oxo-1,2,3,5,6,7-hexahydro-s-indacen-4-yl)carbamoyl)pyridine-3-sulfonimidamide]
200 to 1000 | CC(C)(O)c1ccc(S(N)(=O)=NC(=O)Nc2c3c(c(C#N)c4c2CCC4)CCC3)cn1 (centres unmarked) [Example 470, N′-((8-cyano-1,2,3,5,6,7-hexahydro-s-indacen-4-yl)carbamoyl)-6-(2-hydroxypropan-2-yl)pyridine-3-sulfonimidamide]
1000 to 5000 | CN(C)C(c1ccc(S(N)(=O)=NC(=O)Nc2c3c(cc4c2CCC4)CCC3)cc1)C(F)F (centres unmarked) [Example 474, 4-(1-(Dimethylamino)-2,2-difluoroethyl)-N-((1,2,3,5,6,7-hexahydro-s-indacen-4-yl)carbamoyl)benzenesulfonimidamide]
40 to 200 | CC(C)(O)c1nc(CO)c(S(N)(=O)=NC(=O)Nc2c3c(cc4c2CCC4)CCC3)s1 (centres unmarked) [Example 475, N′-((1,2,3,5,6,7-hexahydro-s-indacen-4-yl)carbamoyl)-4-(hydroxymethyl)-2-(2-hydroxypropan-2-yl)thiazole-5-sulfonimidamide]
200 to 1000 | CC(C)c1cc(S(N)(=O)=NC(=O)Nc2c3c(cc4c2CCC4)CCC3)c(F)cn1 (centres unmarked) [Example 478, 5-Fluoro-N′-((1,2,3,5,6,7-hexahydro-s-indacen-4-yl)carbamoyl)-2-isopropylpyridine-4-sulfonimidamide]
200 to 1000 | CN1CCc2cc(S(N)(=O)=NC(=O)Nc3c4c(cc5c3CCC5)CCC4)sc2C1 (centres unmarked) [Example 479, N′-((1,2,3,5,6,7-hexahydro-s-indacen-4-yl)carbamoyl)-6-methyl-4,5,6,7-tetrahydrothieno[2,3-c]pyridine-2-sulfonimidamide]
1000 to 5000 | CN(C)C(CF)c1ccc(S(N)(=O)=NC(=O)Nc2c3c(cc4c2CCC4)CCC3)cc1 (centres unmarked) [Example 480, 4-(1-(Dimethylamino)-2-fluoroethyl)-N′-((1,2,3,5,6,7-hexahydro-s-indacen-4-yl)carbamoyl)benzenesulfonimidamide]
40 to 200 | CNCc1cc(F)c(S(N)(=O)=NC(=O)Nc2c3c(cc4c2CCC4)CCC3)s1 (centres unmarked) [Example 481, 3-Fluoro-N′-((1,2,3,5,6,7-hexahydro-s-indacen-4-yl)carbamoyl)-5-((methylamino)methyl)thiophene-2-sulfonimidamide]
1000 to 5000 | CC(C)(O)c1cc(C#N)cc(S(N)(=O)=NC(=O)Nc2c3c(c(C#N)c4c2CCC4)CCC3)c1 (centres unmarked) [Example 482, 3-Cyano-N′-((8-cyano-1,2,3,5,6,7-hexahydro-s-indacen-4-yl)carbamoyl)-5-(2-hydroxypropan-2-yl)benzenesulfonimidamide]
1000 to 5000 | NS(=O)(=NC(=O)Nc1c2c(cc3c1CCC3)CCC2)c1ccc(C2CCCC2)nc1 (centres unmarked) [Example 483, 6-Cyclopentyl-N′-((1,2,3,5,6,7-hexahydro-s-indacen-4-yl)carbamoyl)pyridine-3-sulfonimidamide]
200 to 1000 | CN(C)C(c1ccc(S(N)(=O)=NC(=O)Nc2c3c(cc4c2CCC4)CCC3)cc1)C1CC1 (centres unmarked) [Example 484, 4-(Cyclopropyl(dimethylamino)methyl)-N′-((1,2,3,5,6,7-hexahydro-s-indacen-4-yl)carbamoyl)benzenesulfonimidamide]
1000 to 5000 | NS(=O)(=NC(=O)Nc1c2c(cc3c1CCC3)CCC2)c1ccc(C(F)F)nc1 (centres unmarked) [Example 485, 6-(Difluoromethyl)-N′-((1,2,3,5,6,7-hexahydro-s-indacen-4-yl)carbamoyl)pyridine-3-sulfonimidamide]

Same assay, conditions: hTHP-1 assay containing 2% fetal bovine serum, Table B2, class symbols; read-out: IC50

IC50 [nM] | SMILES
200 to 1000 | CC(C)(O)c1cc(S(N)(=O)=NC(=O)Nc2c3c(cc4c2CCC4)CCC3)sc1-c1ccccc1 (centres unmarked) [Example 477, N′-((1,2,3,5,6,7-hexahydro-s-indacen-4-yl)carbamoyl)-4-(2-hydroxypropan-2-yl)-5-phenylthiophene-2-sulfomidamide]
